Assays:
[1] = tested on: Italian ryegrass; test: Test E pre-/postemergence herbicide test; format: in vivo, Lolium multiflorum
How it was run: (§1)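 Greenhouse response scored visually 12 to 14 days after treatment versus controls, 0 meaning no effect and 100 complete control. Compounds, formulated with surfactant in a non-phytotoxic solvent blend, were sprayed either preemergence after sowing or postemergence at the 1- to 4-leaf stage (2 to 18 cm).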

[2] = tested on: pitted morningglory; test: Test E pre-/postemergence herbicide test; format: in vivo, Ipomoea lacunosa
How it was run: as §1

[3] = tested on: common groundsel; test: Test E pre-/postemergence herbicide test; format: in vivo, Senecio vulgaris
How it was run: as §1

[4] = tested on: wheat; test: Test C postemergence herbicide test; format: in vivo, Triticum aestivum
How it was run: (§2)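 Weeds and wheat were sprayed after emergence, at a height of 2 to 18 cm (1–4 leaves), and paddy barnyardgrass was flooded and treated at two leaves. Assessment took place 12–14 days later in the greenhouse on a 0-to-100 visual control scale. A dash means no result was obtained.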

[5] = tested on: dallisgrass; test: Test E pre-/postemergence herbicide test; format: in vivo, Paspalum dilatatum
How it was run: as §1

[6] = tested on: broadleaf signalgrass; test: Test E pre-/postemergence herbicide test; format: in vivo, Brachiaria platyphylla
How it was run: as §1

[7] = tested on: johnsongrass; test: Test E pre-/postemergence herbicide test; format: in vivo, Sorghum halepense
How it was run: as §1

[8] = tested on: green foxtail; test: Test C postemergence herbicide test; format: in vivo, Setaria viridis
How it was run: as §2

[9] = tested on: annual bluegrass; test: Test E pre-/postemergence herbicide test; format: in vivo, Poa annua
How it was run: as §1

[10] = tested on: quackgrass; test: Test E pre-/postemergence herbicide test; format: in vivo, Elytrigia repens
How it was run: as §1

[11] = tested on: Surinam grass; test: Test E pre-/postemergence herbicide test; format: in vivo, Urochloa decumbens
How it was run: as §1

[12] = tested on: large crabgrass; test: Test E pre-/postemergence herbicide test; format: in vivo, Digitaria sanguinalis
How it was run: as §1

[13] = tested on: common purslane; test: Test E pre-/postemergence herbicide test; format: in vivo, Portulaca oleracea
How it was run: as §1

[14] = Preemergence, 62 g ai/ha, scale 0 to 100
[15] = Preemergence, 125 g ai/ha, scale 0 (no effect) to 100 (complete control)
[16] = Preemergence, 250 g ai/ha, scale 0 (no effect) to 100 (complete control)
[17] = Preemergence, 500 g ai/ha, scale 0 (no effect) to 100 (complete control)
[18] = Postemergence, 500 g ai/ha, scale 0 to 100
[19] = Postemergence, 250 g ai/ha, scale 0 to 100, 0 no effect, 100 complete control
[20] = postemergence, 125 g ai/ha, scale 0 to 100
[21] = postemergence, 62 g ai/ha, scale 0 to 100
[22] = Preemergence, 125 g ai/ha, scale 0 to 100
[23] = Postemergence, 250 g ai/ha, scale 0 to 100

CCNC(=O)c1cccc(NC(=O)c2cc(C(C)(C)C)nn2CC)n1 [Compound 144]
Plant response rating, Ryegrass, Italian [1, 14]: 10 | Plant response rating, Ryegrass, Italian [1, 15]: 60 | Plant response rating, Ryegrass, Italian [1, 16]: 80 | Plant response rating, Ryegrass, Italian [1, 17]: 95 | Plant response rating, Morningglory [2, 14]: 0 | Plant response rating, Morningglory [2, 15]: 20 | Plant response rating, Morningglory [2, 16]: 20 | Plant response rating, Morningglory [2, 17]: 100 | Plant response rating, Groundsel [3, 14]: 10 | Plant response rating, Groundsel [3, 15]: 100 | Plant response rating, Groundsel [3, 16]: 100 | Plant response rating, Groundsel [3, 17]: 100 | Wheat plant response rating [4, 18]: 30 | Plant response rating, Wheat [4, 19]: 30 | Plant response rating, Wheat [4, 20]: 30 | Plant response rating, Wheat [4, 21]: 20 | Plant response rating, Dallisgrass [5, 14]: 0 | Plant response rating, Dallisgrass [5, 15]: 30 | Plant response rating, Dallisgrass [5, 16]: 60 | Plant response rating, Dallisgrass [5, 17]: 80 | Plant response rating, Signalgrass [6, 14]: 10 | Plant response rating, Signalgrass [6, 15]: 20 | Plant response rating, Signalgrass [6, 16]: 30 | Plant response rating, Signalgrass [6, 17]: 50 | Plant response rating, Johnsongrass [7, 14]: 30 | Plant response rating, Johnsongrass [7, 15]: 50 | Plant response rating, Johnsongrass [7, 16]: 60 | Plant response rating, Johnsongrass [7, 17]: 60 | Foxtail, Green plant response rating [8, 18]: 60 | Plant response rating, Foxtail, Green [8, 19]: 60 | Plant response rating, Foxtail, Green [8, 20]: 60 | Plant response rating, Foxtail, Green [8, 21]: 40 | Plant response rating, Bluegrass [9, 14]: 80 | Plant response rating, Bluegrass [9, 15]: 90 | Plant response rating, Bluegrass [9, 16]: 100 | Plant response rating, Bluegrass [9, 17]: 100 | Plant response rating, Quackgrass [10, 14]: 10 | Plant response rating, Quackgrass [10, 15]: 30 | Plant response rating, Quackgrass [10, 16]: 70 | Plant response rating, Quackgrass [10, 17]: 80 | Plant response rating, Surinam Grass [11, 14]: 10 | Plant response rating, Surinam Grass [11, 22]: 50 | Plant response rating, Surinam Grass [11, 17]: 70 | Plant response rating, Crabgrass, Large [12, 14]: 0 | Plant response rating, Crabgrass, Large [12, 15]: 40 | Plant response rating, Crabgrass, Large [12, 16]: 50 | Plant response rating, Crabgrass, Large [12, 17]: 60 | Plant response rating, Purslane [13, 14]: 0 | Plant response rating, Purslane [13, 15]: 20 | Plant response rating, Purslane [13, 16]: 90 | Plant response rating, Purslane [13, 17]: 100

CCc1nn(C(C)(C)C)cc1C(=O)Nc1cc(C(=O)N(C)C)ccc1F [Compound 222, N-[5-[(dimethylamino)carbonyl]-2-fluorophenyl]-1-(1,1-dimethylethyl)-3-ethyl-1H-pyrazole-4-carboxamide]
Plant response rating, Ryegrass, Italian [1, 18]: 85 | Plant response rating, Ryegrass, Italian [1, 23]: 85 | Plant response rating, Ryegrass, Italian [1, 14]: 50 | Plant response rating, Ryegrass, Italian [1, 22]: 100 | Plant response rating, Ryegrass, Italian [1, 16]: 100 | Plant response rating, Ryegrass, Italian [1, 17]: 100 | Plant response rating, Ryegrass, Italian [1, 20]: 80 | Plant response rating, Ryegrass, Italian [1, 21]: 50 | Plant response rating, Morningglory [2, 18]: 90 | Plant response rating, Morningglory [2, 23]: 60 | Plant response rating, Morningglory [2, 22]: 30 | Plant response rating, Morningglory [2, 16]: 40 | Plant response rating, Morningglory [2, 17]: 95 | Plant response rating, Morningglory [2, 20]: 40 | Plant response rating, Morningglory [2, 21]: 20 | Plant response rating, Groundsel [3, 18]: 100 | Plant response rating, Groundsel [3, 23]: 95 | Plant response rating, Groundsel [3, 14]: 30 | Plant response rating, Groundsel [3, 22]: 100 | Plant response rating, Groundsel [3, 16]: 100 | Plant response rating, Groundsel [3, 17]: 100 | Plant response rating, Groundsel [3, 20]: 70 | Plant response rating, Groundsel [3, 21]: 40 | Plant response rating, Dallisgrass [5, 18]: 85 | Plant response rating, Dallisgrass [5, 23]: 85 | Plant response rating, Dallisgrass [5, 14]: 50 | Plant response rating, Dallisgrass [5, 22]: 80 | Plant response rating, Dallisgrass [5, 16]: 100 | Plant response rating, Dallisgrass [5, 17]: 100 | Plant response rating, Dallisgrass [5, 20]: 60 | Plant response rating, Dallisgrass [5, 21]: 30 | Plant response rating, Signalgrass [6, 18]: 85 | Plant response rating, Signalgrass [6, 23]: 80 | Plant response rating, Signalgrass [6, 14]: 10 | Plant response rating, Signalgrass [6, 22]: 60 | Plant response rating, Signalgrass [6, 16]: 95 | Plant response rating, Signalgrass [6, 17]: 95 | Plant response rating, Signalgrass [6, 20]: 40 | Plant response rating, Signalgrass [6, 21]: 10 | Plant response rating, Johnsongrass [7, 23]: 60 | Plant response rating, Johnsongrass [7, 14]: 70 | Plant response rating, Johnsongrass [7, 22]: 80 | Plant response rating, Johnsongrass [7, 16]: 90 | Plant response rating, Johnsongrass [7, 17]: 100 | Plant response rating, Johnsongrass [7, 20]: 60 | Plant response rating, Johnsongrass [7, 21]: 10 | Plant response rating, Bluegrass [9, 18]: 90 | Plant response rating, Bluegrass [9, 23]: 90 | Plant response rating, Bluegrass [9, 14]: 90 | Plant response rating, Bluegrass [9, 22]: 100 | Plant response rating, Bluegrass [9, 16]: 100 | Plant response rating, Bluegrass [9, 17]: 100 | Plant response rating, Bluegrass [9, 20]: 80 | Plant response rating, Bluegrass [9, 21]: 60 | Plant response rating, Quackgrass [10, 18]: 85 | Plant response rating, Quackgrass [10, 23]: 80 | Plant response rating, Quackgrass [10, 14]: 10 | Plant response rating, Quackgrass [10, 22]: 80 | Plant response rating, Quackgrass [10, 16]: 100 | Plant response rating, Quackgrass [10, 17]: 100 | Plant response rating, Quackgrass [10, 20]: 75 | Plant response rating, Quackgrass [10, 21]: 30 | Plant response rating, Surinam Grass [11, 23]: 80 | Plant response rating, Surinam Grass [11, 22]: 90 | Plant response rating, Surinam Grass [11, 17]: 100 | Plant response rating, Surinam Grass [11, 20]: 80 | Plant response rating, Surinam Grass [11, 21]: 50 | Plant response rating, Crabgrass, Large [12, 18]: 100 | Plant response rating, Crabgrass, Large [12, 23]: 90 | Plant response rating, Crabgrass, Large [12, 14]: 70 | Plant response rating, Crabgrass, Large [12, 22]: 100 | Plant response rating, Crabgrass, Large [12, 16]: 100 | Plant response rating, Crabgrass, Large [12, 17]: 100 | Plant response rating, Crabgrass, Large [12, 20]: 80 | Plant response rating, Crabgrass, Large [12, 21]: 60 | Plant response rating, Purslane [13, 23]: 60 | Plant response rating, Purslane [13, 14]: 70 | Plant response rating, Purslane [13, 22]: 100 | Plant response rating, Purslane [13, 16]: 100 | Plant response rating, Purslane [13, 17]: 100 | Plant response rating, Purslane [13, 20]: 30 | Plant response rating, Purslane [13, 21]: 10

CCc1nn(C(C)C)nc1C(=O)Nc1cccc(C(=O)N2CCCCC2)c1 [Compound 385]
Plant response rating, Ryegrass, Italian [1, 14]: 10 | Plant response rating, Ryegrass, Italian [1, 22]: 30 | Plant response rating, Ryegrass, Italian [1, 16]: 60 | Plant response rating, Morningglory [2, 14]: 10 | Plant response rating, Morningglory [2, 22]: 10 | Plant response rating, Morningglory [2, 16]: 10 | Plant response rating, Groundsel [3, 14]: 0 | Plant response rating, Groundsel [3, 22]: 0 | Plant response rating, Groundsel [3, 16]: 60 | Plant response rating, Dallisgrass [5, 14]: 10 | Plant response rating, Dallisgrass [5, 22]: 30 | Plant response rating, Dallisgrass [5, 16]: 50 | Plant response rating, Signalgrass [6, 14]: 10 | Plant response rating, Signalgrass [6, 22]: 20 | Plant response rating, Signalgrass [6, 16]: 20 | Plant response rating, Johnsongrass [7, 14]: 10 | Plant response rating, Johnsongrass [7, 22]: 10 | Plant response rating, Johnsongrass [7, 16]: 30 | Plant response rating, Bluegrass [9, 14]: 0 | Plant response rating, Bluegrass [9, 22]: 10 | Plant response rating, Bluegrass [9, 16]: 30 | Plant response rating, Quackgrass [10, 14]: 10 | Plant response rating, Quackgrass [10, 22]: 20 | Plant response rating, Quackgrass [10, 16]: 30 | Plant response rating, Surinam Grass [11, 22]: 20 | Plant response rating, Crabgrass, Large [12, 14]: 80 | Plant response rating, Crabgrass, Large [12, 22]: 80 | Plant response rating, Crabgrass, Large [12, 16]: 80 | Plant response rating, Purslane [13, 14]: 100 | Plant response rating, Purslane [13, 22]: 100 | Plant response rating, Purslane [13, 16]: 100

CCc1nn(C(C)C)nc1C(=O)Nc1cccc(C(=O)N(C)CC)c1 [Compound 386]
Plant response rating, Ryegrass, Italian [1, 22]: 60 | Plant response rating, Ryegrass, Italian [1, 16]: 95 | Plant response rating, Morningglory [2, 22]: 20 | Plant response rating, Morningglory [2, 16]: 40 | Plant response rating, Groundsel [3, 22]: 30 | Plant response rating, Groundsel [3, 16]: 50 | Plant response rating, Dallisgrass [5, 22]: 70 | Plant response rating, Dallisgrass [5, 16]: 75 | Plant response rating, Signalgrass [6, 22]: 30 | Plant response rating, Signalgrass [6, 16]: 85 | Plant response rating, Johnsongrass [7, 22]: 75 | Plant response rating, Johnsongrass [7, 16]: 80 | Plant response rating, Bluegrass [9, 22]: 60 | Plant response rating, Bluegrass [9, 16]: 95 | Plant response rating, Quackgrass [10, 22]: 80 | Plant response rating, Quackgrass [10, 16]: 90 | Plant response rating, Surinam Grass [11, 22]: 80 | Plant response rating, Crabgrass, Large [12, 22]: 95 | Plant response rating, Crabgrass, Large [12, 16]: 95 | Plant response rating, Purslane [13, 22]: 100 | Plant response rating, Purslane [13, 16]: 100

From patent publication US20060069132A1, “Azolecarboxamide herbicides” (priority 2004, published 2006)
